Laboratory results as given in US5374720A, “2-(substituted pyrrolidinylthio)carbapenem derivatives” (Banyu Pharmaceutical Co., Ltd., priority 1990, dated 1994).
≈ marks a conversion by molar mass, not a printed value. Like-named read-outs stand apart in the source and are kept apart here.

Columns and labels:
P. aeruginosa AKR17 = experiment: in vitro antibacterial activity, agar plate dilution method (MIC); type: cell-based; conditions: for MIC: Pseudomonas aeruginosa, AKR17, 16 h, read-out: Minimum Inhibitory Concentration (MIC)
Method: (§1) One platinum loopful of each test microorganism incubated overnight in Mueller Hinton broth, was inoculated to Mueller Hinton agar (inoculum size: 10^6 CFU/ml). Such culture media contained antibacterial agents in various concentrations. After incubation at 37° C. for 16 hours, the minimum inhibitory concentrations (MIC: μg/ml) were measured.

P. aeruginosa MB5000 = experiment: as above; type: cell-based; conditions: for MIC: Pseudomonas aeruginosa, MB5000, 16 h, read-out: Minimum Inhibitory Concentration (MIC)
Method: as §1

P. aeruginosa MB5002 = experiment: as above; type: cell-based; conditions: for MIC: Pseudomonas aeruginosa, MB5002, 16 h, read-out: Minimum Inhibitory Concentration (MIC)
Method: as §1

Meth-R S. aureus = experiment: disc diffusion test, relative antibacterial potency to thienamycin; type: cell-based; conditions: ratio to thienamycin (=1.0), larger = higher activity
Method: (§2) The antibacterial activities of the compounds of the present invention described in the Examples, as representative examples of the compound of the present invention, were measured by a disc diffusion test by the method of Bauer et al. (Amer. J. Clin. Pathol., vol. 45, p. 493 (1966)). Thienamycin or imipenem was used as the internal standard.
(§3) MIC of each test compound was calculated from the diameter of the inhibition ring formed by the disc containing the test compound by using the calculation formula reported by Humphrey and Lightbown (J. Gen. Microbiol., vol. 7, p. 129 (1952)). For each microorganism, a geometrical average of MIC was obtained, and the activity ratio to thienamycin was calculated.
(§4) The antibacterial activities are represented by the ratio to thienamycin (=1.0), whereby the larger the numerical value, the higher the activities.

THM-R P. aeruginosa = experiment: as above; type: cell-based; conditions: ratio to thienamycin (=1.0), larger = higher activity
Method: as §2, §3, §4

DHP-I = DHP-I susceptibility (method by Kropp et al.); type: in vitro ADME
Text: The DHP-I susceptibility was quantitatively analyzed by the method by Kropp et al., Antimicrob. Agents Chemother., vol. 22, p. 62-70 (1982), whereby the smaller the numerical value representing the ratio to imipenem (=1.0), the higher the stability. The antibacterial potency and the DHP-I susceptibility of the compounds of the present invention were compared with imipenem and meropenem.

[1] = tested on: gram positive bacteria and gram negative bacteria; conditions: background; cited from earlier work
[2] = background, cited from earlier work
β-lactamase = conditions: background; cited from earlier work
[3] = due to the decomposition products; cited from earlier work
[4] = tested on: DHP-I in the human kidney; conditions: background; cited from earlier work
[5] = tested on: highly methicillin resistant Staphylococcus aureus which is resistant to imipenem and imipenem resistant Pseudomonas aeruqinosa; conditions: background; cited from earlier work
[6] = tested on: highly methicillin resistant Staphylococcus aureus; conditions: background; cited from earlier work
[7] = tested on: renal dehydropeptidase I (DHP-I); conditions: background; cited from earlier work
[8] = background; cited from earlier work
[9] = P. aeruginosa AKR17 (lactamase producing microorganism), Mueller Hinton agar, 10^6 CFU/ml, 37° C., 16 hours
[10] = P. aeruginosa MB5000, Mueller Hinton agar, 10^6 CFU/ml, 37° C., 16 hours
[11] = P. aeruginosa MB5002, Mueller Hinton agar, 10^6 CFU/ml, 37° C., 16 hours
[12] = ratio to imipenem (=1.0), smaller = higher stability

Row | SMILES | MIC (P. aeruginosa AKR17; [9]) [µg/mL] | MIC (P. aeruginosa MB5000; [10]) [µg/mL] | MIC (P. aeruginosa MB5002; [11]) [µg/mL] | Relative antibacterial potency to thienamycin (Meth-R S. aureus) | Relative antibacterial potency to thienamycin (THM-R P. aeruginosa) | DHP-I susceptibility (DHP-I; [12]) | further results
1 | C[C@@H](O)[C@H]1C(=O)N2C(C(=O)O)=C(S[C@@H]3CN[C@H](C4CCNC4)C3)[C@H](C)[C@H]12 (single isomer, unassigned) [Example 11 Diastereomer A] | 0.78 (≈ 2.04 µM) | 0.1 (≈ 0.262 µM) | 0.78 (≈ 2.04 µM) | 15.2 | 12.7 | < 0.05 | –
2 | C[C@@H](O)[C@H]1C(=O)N2C(C(=O)O)=C(S[C@@H]3CN[C@H](C4CCNC4)C3)[C@H](C)[C@H]12 (single isomer, unassigned) [Example 11 Diastereomer B] | – | – | – | 12.3 | 11.5 | < 0.05 | Minimum Inhibitory Concentration (MIC) (P. aeruginosa AKR17; [9]): 1.56 µg/mL; Minimum Inhibitory Concentration (MIC) (P. aeruginosa MB5000; [10]): 0.2 µg/mL; Minimum Inhibitory Concentration (MIC) (P. aeruginosa MB5002; [11]): 1.56 µg/mL
3 | C[C@@H](O)[C@H]1C(=O)N2C(C(=O)O)=C(S[C@@H]3CN[C@H](C4CCN(C)C4)C3)[C@H](C)[C@H]12 (single isomer, unassigned) [Example 12 Diastereomer A] | 1.56 (≈ 3.94 µM) | – | 1.56 (≈ 3.94 µM) | – | – | – | –
4 | C[C@@H](O)[C@H]1C(=O)N2C(C(=O)[O-])=C(S[C@@H]3CN[C@H](C4CC[N+](C)(C)C4)C3)[C@H](C)[C@H]12 (single isomer, unassigned) [Example 13 Diastereomer A] | 1.56 (≈ 3.81 µM) | 0.2 (≈ 0.488 µM) | 0.78 (≈ 1.9 µM) | – | – | – | –
5 | C[C@@H](O)[C@H]1C(=O)N2C(C(=O)[O-])=C(S[C@@H]3CN[C@H](C4CC[N+](C)(C)C4)C3)[C@H](C)[C@H]12 (single isomer, unassigned) [Example 13] | – | – | – | – | 11.5 | < 0.05 | –
6 | C[C@@H](O)[C@H]1C(=O)N2C(C(=O)O)=C(S[C@@H]3CN[C@H](CC4CN[C@H](C(N)=O)C4)C3)[C@H](C)[C@H]12 (stereo partly drawn) [Example 32, (1R, 5S,6S)-2-[(2R,4S)-2-[(2S)-2-carbamoylpyrrolidin-4-ylmethyl]pyrrolidin-4-ylthio]-6-[(R)-1-hydroxyethyl]-1-methyl-1-carbapen-2-em-3-carboxylic acid] | – | – | – | – | 19.5 | < 0.05 | –
7 | C[C@@H](O)[C@H]1C(=O)N2C(C(=O)O)=C(S[C@@H]3CN[C@H](CC4CN[C@H](C(=O)N(C)C)C4)C3)[C@H](C)[C@H]12 (stereo partly drawn) [Example 34, (1R,5S,6S)-6-[(R)-1-hydroxyethyl]-1-methyl-2-[(2R,4S)-2-[(2S)-2-(dimethylcarbamoyl)pyrrolidin-4-ylmethyl]pyrrolidin-4-ylthio]-1-carbapen-2-em-3-carboxylic acid] | – | – | – | 22.7 | 21.6 | 0.07 | –
8 | C[C@@H](O)[C@H]1C(=O)N2C(C(=O)O)=C(S[C@@H]3CN[C@H](C4CCNCC4)C3)[C@H](C)[C@H]12 [Example 43, (1R,5S,6S)-6-[(R)-1-hydroxyethyl]-1-methyl-2-[(2S,4S)-2-(piperidin-4-yl)pyrrolidin-4-ylthio]-1-carbapen-2-em-3-carboxylic acid] | 1.56 (≈ 3.94 µM) | 0.1 (≈ 0.253 µM) | 0.39 (≈ 0.986 µM) | – | – | – | –
9 | C[C@@H](O)[C@H]1C(=O)N2C(C(=O)O)=C(S[C@@H]3CN[C@H](C4CCN(C)CC4)C3)[C@H](C)[C@H]12 [Example 49] | 1.56 (≈ 3.81 µM) | 0.2 (≈ 0.488 µM) | 0.78 (≈ 1.9 µM) | 13.6 | 13.8 | 0.10 | –
10 | C[C@@H](O)[C@H]1C(=O)N2C(C(=O)O)=C(SCCN=CN)C[C@H]12 [Imipenem, (5R,6S,8R)-3-[[2-(formimidoylamino)ethyl]thio]-6-(1-hydroxyethyl)-7-oxo-1-azabicyclo[3.2.0]hept-2-en-2-carboxylic acid monohydrate, reference compound] | – | – | – | 2.57 | 2.0 | 1.0 | MIC (P. aeruginosa AKR17): 6.25 µg/mL; MIC (P. aeruginosa MB5000): 1.56 µg/mL; MIC (P. aeruginosa MB5002): 3.13 µg/mL; antibacterial activities [1]: equal or higher level than thienamycin against various types of bacteria; stability in the solid form or in an aqueous solution ([2]; compared with thienamycin): remarkably improved over thienamycin; β-lactamase resistance (β-lactamase): has β-lactamase resistance; toxicity against the kidney [3]: presents toxicity against the kidney due to the decomposition products; decomposition by DHP-I in the human kidney [4]: likely to be decomposed by DHP-I in the human kidney; treating effects against resistant bacteria [5]: does not show adequate treating effects against these resistant bacteria
11 | C[C@@H](O)[C@H]1C(=O)N2C(C(=O)O)=C(S[C@@H]3CN[C@H](C(=O)N(C)C)C3)[C@H](C)[C@H]12 [Meropenem, (4R,5S,6S,8R,2'S,4'S)-6-(1-hydroxyethyl)-4-methyl-3-[2-(N,N-dimethylaminocarbonyl)-pyrrolidin-4-ylthio]-7-oxo-1-azabicyclo[3.2.0]hept-2-en-2-carboxylic acid, reference compound] | 3.13 (≈ 8.16 µM) | 0.39 (≈ 1.02 µM) | 6.25 (≈ 16.3 µM) | 3.22 | 6.9 | – | DHP-I susceptibility (DHP-I): 0.12; antibacterial activities against highly methicillin resistant Staphylococcus aureus [6]: not adequate; decomposition by / stability against DHP-I [7]: substantially improved
12 | C[C@@H](O)[C@H]1C(=O)N2C(C(=O)O)=C(SCCN)C[C@H]12 [Thienamycin, thienamycin] | – | – | – | – | – | – | antibacterial activities [1]: strong antibacterial activities over a wide range against gram positive bacteria and gram negative bacteria; decomposition by / stability against DHP-I [7]: likely to be decomposed by a certain enzyme in vivo such as renal dehydropeptidase I; chemical stability [2]: chemically unstable; recovery rate in the urine [8]: low; decomposition by DHP-I in the human kidney [4]: likely to be decomposed by DHP-I in the human kidney
